One may read the IC50 as the concentration that gives 50% inhibition.

This is an account of results in US10273263B2, “Pro-drug forming compounds” (priority 2013, dated 2019).

Molecules are shown by their SMILES.

The subject of experiment [1] is ovarectomized female rats. As to conditions: compared with estradiol and ethinyl estradiol; cited from earlier work.
The target in experiment [2] is T1, sulfatase (Homo sapiens, UniProt P08842).
T1 construct: host or cells: in vivo, women
T1 sequence (P08842 22-583): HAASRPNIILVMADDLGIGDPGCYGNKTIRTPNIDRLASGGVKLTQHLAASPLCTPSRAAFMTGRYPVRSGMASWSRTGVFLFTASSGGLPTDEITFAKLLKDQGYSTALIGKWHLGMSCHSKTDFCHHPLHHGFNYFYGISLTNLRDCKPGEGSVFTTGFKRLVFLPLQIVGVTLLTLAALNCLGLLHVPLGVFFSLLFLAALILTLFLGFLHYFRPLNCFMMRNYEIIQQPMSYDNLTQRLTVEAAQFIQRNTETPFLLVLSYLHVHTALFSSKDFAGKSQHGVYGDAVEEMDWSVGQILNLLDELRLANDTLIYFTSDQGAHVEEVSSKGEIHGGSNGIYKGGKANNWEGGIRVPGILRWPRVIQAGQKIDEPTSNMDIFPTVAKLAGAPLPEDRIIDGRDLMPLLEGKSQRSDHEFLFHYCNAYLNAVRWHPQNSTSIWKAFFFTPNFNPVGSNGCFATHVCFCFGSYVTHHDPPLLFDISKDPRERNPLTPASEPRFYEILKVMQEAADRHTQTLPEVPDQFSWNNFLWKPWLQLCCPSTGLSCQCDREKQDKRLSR
As to conditions: in women; cited from earlier work.

Experiment [3] has as its target human carbonic anhydrase II (hCA 2) (Homo sapiens, UniProt P00918). Kind of experiment: Human Carbonic Anhydrase II inhibition. Format: biochemical. As to conditions: read-out: hCAII (IC50 nM).
A short description of experiment [4]: oral biological activity: % uterine weight increase compared to vehicle. As to conditions: Rattus norvegicus; oral, 30.0 μg. In kind it is in vivo, rat. Here is the method:
Exemplary compounds were tested for: oral biological activity (Table 1); binding to human carbonic anhydrase II (hCA 2) (Table 2); and, for some compounds enzymatic saponification (Table 3).

Consider `C[C@]12CCC3c4ccc(OS(N)(=O)=O)cc4CCC3C1CC[C@@H]2O` (stereo partly drawn) [Compound J995, (13S,17S)-17-hydroxy-13-methyl-7,8,9,11,12,13,14,15,16,17-decahydro-6H-cyclopenta[a]phenanthren-3-yl sulfamate, reference compound], for which the “estrogenic activity after oral administration” value in experiment [1] was “higher estrogenic activity after oral administration than estradiol and ethinyl estradiol”. The inhibition of sulfatase result in experiment [2] was “acted as an inhibitor of sulfatase”. The IC50 in experiment [3] is 295 nM. The same molecule showed a change in vivo at 0.03 mg in experiment [4] of 203%.
